pIC50: −log10 of the molar value.
Legend:
Integrase [1] = target: T1, Integrase (Human immunodeficiency virus 1, UniProt Q7ZJM1); test: Inhibition of HIV1 integrase strand transfer activity
Integrase [2] = target: T1, Integrase; test: Inhibition of HIV1 integrase 3' processing activity

T1 sequence (Q7ZJM1 whole entry): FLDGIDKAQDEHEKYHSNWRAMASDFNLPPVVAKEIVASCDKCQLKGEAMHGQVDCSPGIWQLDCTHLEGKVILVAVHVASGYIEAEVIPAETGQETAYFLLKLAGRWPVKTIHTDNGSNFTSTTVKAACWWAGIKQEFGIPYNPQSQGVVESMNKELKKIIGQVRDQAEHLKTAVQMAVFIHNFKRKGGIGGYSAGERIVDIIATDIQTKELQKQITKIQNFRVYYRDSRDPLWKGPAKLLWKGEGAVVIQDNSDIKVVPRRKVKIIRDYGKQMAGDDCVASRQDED

pIC50 (Integrase [1]): < 3.48
pIC50 (Integrase [2]): < 3.48
Structure (SMILES): COC(=O)C(=O)CC(=O)c1ccccc1
